This note sets out measurements from patent publication US8759376B2, “Isoxazole and isothiazole compounds useful in the treatment of inflammation” (The Feinstein Institute for Medical Research, priority 2003, dated 2014).

Experiment [1] relates to α-bungarotoxin sensitive receptor on the RAW 264.7 cells. It is filed as cell-based, murine.
The next experiment concerns female BALB/c mice. In words: Localized Shwartzman reaction model, ear immunostaining. It is filed as in vivo. Conditions: i.p.; ears 5 hours after LPS challenge; compared to vehicle-treated animals. The protocol:
The localized Shwartzman reaction was performed as previously described (C. Sunderkotter, S. Seeliger, F. Schonlau, J. Roth, R. Hallmann, T. A. Luger, C. Sorg, and G. Kolde. 2001. Different pathways leading to cutaneous leukocytoclastic vasculitits in mice. Exp Dermatol 10:391-404.). Briefly, female BALB/c mice (22-26 g, Taconic) were injected with saline or Compound VIf (i.p., at the indicated doses), and then injected s.c. into the pinnae of the ear with 20 Φg LPS (preparatory dose). One day later, mice (4 per group) were injected either with vehicle (saline) or […] (i.p., at the indicated doses) 15 min prior to challenge with LPS (150 Φg, i.p.) To generate a localized vasculitic reaction. Five hours later, mice were sacrificed by CO2 asphyxiation, and the ears were excised and cut in half longitudinally. Ears were flash frozen in liquid nitrogen and stored at −80 EC. Each experiment was repeated twice. […]
After immunostaining, slides were counterstained with H&E, dehydrated, and mounted with permount. For enumeration of positive staining, three fields per section (three sections per sample) were assessed at 200× magnification and scored as the average number (+SD) of VCAM-1 or E-selectin positive capillaries/vessels. […]

The test system of experiment [2] is female Swiss Webster mice. The experiment can be described thus: Carrageenan air pouch model, pouch fluid cytokines by ELISA. To be noted: 12 mg/kg i.p. It is filed as in vivo. Background: An ELISA detects its analyte on a solid surface through an enzyme-linked reagent.
Another experiment concerns TNF. The experiment can be described thus: TNF production by LPS-stimulated primary human macrophages (ELISA). It is filed as cell-based. Conditions: LPS 100 ng/ml, 4 hours. As for the experimental part:
Human macrophage cultures were prepared as follows. Buffy coats were collected from the blood of healthy individual donors to the Long Island Blood Bank Services (Melville, N.Y.). Primary blood mononuclear cells were isolated by density-gradient centrifugation through Ficoll/Hypaque (Pharmacia, N.J.), suspended (8×10^6 cells/ml) in RPMI 1640 medium supplemented with 10% heat inactivated human serum (Gemini Bio-Products, Inc., Calabasas, Calif.), and seeded in flasks (PRIMARIA; Beckton and Dickinson Labware, Franklin Lakes, N.J.). After incubation for 2 hours at 37° C., adherent cells were washed extensively, treated briefly with 10 mM EDTA, detached, resuspended (10^6 cells/ml) in RPMI medium (10% human serum), supplemented with human macrophage colony stimulating factor (MCSF; Sigma Chemical Co., St. Louis, Mo.; 2 ng/ml), and seeded onto 24-well tissue culture plates (PRIMARIA; Falcon) (10^6 cells/well). Cells were allowed to differentiate for 7 days in the presence of MCSF. On day 7 the cells were washed 3 times with 1× Dulbecco's phosphate buffered saline (PBS, GibcoBRL, Life Technologies, Rockville, Md.), fresh medium devoid of MCSF was added, and experiments performed as indicated. […]

Where “and” joins values, the source holds several entries; their conditions need not be identical. Equal entries are not always repeated.

Regarding α-bungarotoxin, the “effect on the inhibition of LPS-mediated TNFα release by compound (VI f)” value in experiment [1] is “partially abrogated the inhibitory effect”.
For `c1cncc(C2=NOC(c3ccncc3)C2)c1` (centres unmarked) [Compound (VI f)], in the experiment on female BALB/c mice, the “E-selectin protein expression by the endothelium” value is recorded as “reduced” and the “VCAM-1 protein expression by the endothelium” value is given as “reduced”. The “reduction of pouch fluid levels of MCP-1” value in experiment [2] is 20% and 30%. Moreover, the “reduction of pouch TNF levels” value in experiment [2] (compared to vehicle-treated controls) was 40%. Also, the “pouch TNF level, % of control” value in experiment [2] (control 100±7%) was determined as 60±11%.
As for `c1ccc(C2CC(c3cccnc3)=NO2)nc1` (centres unmarked) [(VI d)], in the experiment on TNF, the TNF release result is recorded as “inhibited TNF release in a dose dependent manner” and the “efficacy on TNF release compared with control (nicotine)” value is recorded as “comparable to or better than that of the control”.
